Results reported in the supplement of paper PMC11451515.

Assays:
Details in all cases: 48 h
P12-Ichikawa [1] = test: AUC of viability dose-response curve (% viability x log10 dose units); higher = less sensitive
Procedure, shortened: (§1)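 Leukemia cells adapted to each medium (500 or 1000 cells/well, 1536-well plates) were exposed to library compounds in DMSO for 48 h at 37°C at 11 threefold doses, 47 μM to 0.79 nM. Luminescence by CellTiter-Glo One was normalised per plate to DMSO and cell-free wells, then fitted with a four-parameter log-logistic curve on log10 dose. Curves above full viability were scaled and quality-control failures removed before area under the curve was integrated by trapezoidal rule.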

SEM cells [2] = test: as above
Procedure, shortened: as §1

NOMO1 [3] = test: as above
Procedure, shortened: as §1

NOMO1 [4] = test: cell viability relative to DMSO control; higher = less cytotoxic
Procedure, shortened: (§2)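 Three leukemia lines were tested: NOMO1 and SEM at 500 cells/well and P12-Ichikawa at 1000 cells/well. Each was adapted for at least four passages in each medium and seeded in 5 μl in 1536-well plates, and library compounds in DMSO were pin-dosed from 47 μM to 0.79 nM in 11 threefold steps. After 48 h at 37°C, CellTiter-Glo One luminescence was read. Viability is a percentage relative to DMSO wells on each plate, with cell-free wells as background.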

P12-Ichikawa [5] = test: as above
Procedure, shortened: as §2

SEM cells [6] = test: as above
Procedure, shortened: as §2

C[S+](=O)([O-])c1cc(F)cc2c3c(n(Cc4ccc(Cl)cc4)c12)[C@@H](CC(=O)O)CC3
AUC of viability dose-response curve
Details	HPLM + 10% dialyzed FBS	RPMI 5 mM glucose + 10% FBS	RPMI 5 mM glucose + 10% dialyzed FBS
P12-Ichikawa [1]	466	451	467
SEM cells [2]	477	468	461

CC(C)c1noc(N2CCC(COc3ccc(-c4ccc([S+](C)(=O)[O-])cc4)nc3)CC2)n1
AUC of viability dose-response curve
Details	HPLM + 10% dialyzed FBS	RPMI 5 mM glucose + 10% FBS	RPMI 5 mM glucose + 10% dialyzed FBS
NOMO1 [3]	467	459	463
P12-Ichikawa [1]	454	453	452

cell viability [%]
Details	NOMO1 [4]	P12-Ichikawa [5]	SEM cells [6]
HPLM + 10% dialyzed FBS, 0.000781 µM	122	117	131
HPLM + 10% dialyzed FBS, 0.00234 µM	104	117	81.5
HPLM + 10% dialyzed FBS, 0.00702 µM	117	113	115
HPLM + 10% dialyzed FBS, 0.0211 µM	103	120	122
HPLM + 10% dialyzed FBS, 0.0632 µM	122	122	132
HPLM + 10% dialyzed FBS, 0.19 µM	108	114	32.7
HPLM + 10% dialyzed FBS, 0.569 µM	120	112	128
HPLM + 10% dialyzed FBS, 1.71 µM	109	106	84.8
HPLM + 10% dialyzed FBS, 5.12 µM	94.3	103	16.3
HPLM + 10% dialyzed FBS, 15.4 µM	109	98.7	122
HPLM + 10% dialyzed FBS, 46.1 µM	116	103	109
RPMI 5 mM glucose + 10% FBS, 0.000781 µM	114	118	111
RPMI 5 mM glucose + 10% FBS, 0.00234 µM	113	120	73.4
RPMI 5 mM glucose + 10% FBS, 0.00702 µM	122	119	140
RPMI 5 mM glucose + 10% FBS, 0.0211 µM	118	112	126
RPMI 5 mM glucose + 10% FBS, 0.0632 µM	121	119	134
RPMI 5 mM glucose + 10% FBS, 0.19 µM	114	109	23.1
RPMI 5 mM glucose + 10% FBS, 0.569 µM	122	110	120
RPMI 5 mM glucose + 10% FBS, 1.71 µM	104	118	53.1
RPMI 5 mM glucose + 10% FBS, 5.12 µM	105	111	12.9
RPMI 5 mM glucose + 10% FBS, 15.4 µM	110	113	114
RPMI 5 mM glucose + 10% FBS, 46.1 µM	100	101	112
RPMI 5 mM glucose + 10% dialyzed FBS, 0.000781 µM	118	117	111
RPMI 5 mM glucose + 10% dialyzed FBS, 0.00234 µM	122	105	56
RPMI 5 mM glucose + 10% dialyzed FBS, 0.00702 µM	118	120	136
RPMI 5 mM glucose + 10% dialyzed FBS, 0.0211 µM	122	108	138
RPMI 5 mM glucose + 10% dialyzed FBS, 0.0632 µM	117	114	115
RPMI 5 mM glucose + 10% dialyzed FBS, 0.19 µM	128	110	28.8
RPMI 5 mM glucose + 10% dialyzed FBS, 0.569 µM	119	106	111
RPMI 5 mM glucose + 10% dialyzed FBS, 1.71 µM	109	110	60.4
RPMI 5 mM glucose + 10% dialyzed FBS, 5.12 µM	116	100	10.3
RPMI 5 mM glucose + 10% dialyzed FBS, 15.4 µM	113	112	100
RPMI 5 mM glucose + 10% dialyzed FBS, 46.1 µM	107	97.4	104

CC(=O)O[C@@]1(CC[C@H]2[C@@H]3\C=C(Cl)/C4=C/C(=O)[C@@H]5C[C@@H]5[C@]4(C)[C@H]3CC[C@]12C)C(C)=O
AUC of viability dose-response curve
Details	HPLM + 10% dialyzed FBS	RPMI 5 mM glucose + 10% FBS	RPMI 5 mM glucose + 10% dialyzed FBS
NOMO1 [3]	364	322	360
SEM cells [2]	464	450	442

cell viability [%]
Details	NOMO1 [4]	SEM cells [6]
HPLM + 10% dialyzed FBS, 0.000781 µM	95.1	111
HPLM + 10% dialyzed FBS, 0.00234 µM	124	120
HPLM + 10% dialyzed FBS, 0.00702 µM	140	126
HPLM + 10% dialyzed FBS, 0.0211 µM	137	125
HPLM + 10% dialyzed FBS, 0.0632 µM	133	131
HPLM + 10% dialyzed FBS, 0.19 µM	135	130
HPLM + 10% dialyzed FBS, 0.569 µM	114	128
HPLM + 10% dialyzed FBS, 1.71 µM	66.4	131
HPLM + 10% dialyzed FBS, 5.12 µM	36	136
HPLM + 10% dialyzed FBS, 15.4 µM	38.5	134
HPLM + 10% dialyzed FBS, 46.1 µM	34.5	127
RPMI 5 mM glucose + 10% FBS, 0.000781 µM	–	115
RPMI 5 mM glucose + 10% FBS, 0.00234 µM	–	115
RPMI 5 mM glucose + 10% FBS, 0.00702 µM	–	126
RPMI 5 mM glucose + 10% FBS, 0.0211 µM	–	119
RPMI 5 mM glucose + 10% FBS, 0.0632 µM	–	118
RPMI 5 mM glucose + 10% FBS, 0.19 µM	–	144
RPMI 5 mM glucose + 10% FBS, 0.569 µM	–	128
RPMI 5 mM glucose + 10% FBS, 1.71 µM	–	116
RPMI 5 mM glucose + 10% FBS, 5.12 µM	–	120
RPMI 5 mM glucose + 10% FBS, 15.4 µM	–	135
RPMI 5 mM glucose + 10% FBS, 46.1 µM	–	135

O=C(/C=C\n1cnc(-c2cc(C(F)(F)F)cc(C(F)(F)F)c2)n1)NNc1cnccn1
AUC of viability dose-response curve
Details	HPLM + 10% dialyzed FBS	RPMI 5 mM glucose + 10% FBS	RPMI 5 mM glucose + 10% dialyzed FBS
P12-Ichikawa [1]	302	296	295
SEM cells [2]	310	301	309

N#CCNC(=O)c1ccc(-c2ccnc(Nc3ccc(N4CCOCC4)cc3)n2)cc1
AUC of viability dose-response curve
Details	HPLM + 10% dialyzed FBS	RPMI 5 mM glucose + 10% FBS	RPMI 5 mM glucose + 10% dialyzed FBS
P12-Ichikawa [1]	447	442	434
SEM cells [2]	405	412	394

cell viability [%]
Details	NOMO1 [4]	P12-Ichikawa [5]	SEM cells [6]
HPLM + 10% dialyzed FBS, 0.000781 µM	109	98.6	–
HPLM + 10% dialyzed FBS, 0.00234 µM	115	108	–
HPLM + 10% dialyzed FBS, 0.00702 µM	116	118	–
HPLM + 10% dialyzed FBS, 0.0211 µM	134	114	–
HPLM + 10% dialyzed FBS, 0.0632 µM	128	110	–
HPLM + 10% dialyzed FBS, 0.19 µM	117	110	–
HPLM + 10% dialyzed FBS, 0.569 µM	115	98.8	–
HPLM + 10% dialyzed FBS, 1.71 µM	105	111	–
HPLM + 10% dialyzed FBS, 5.12 µM	124	111	–
HPLM + 10% dialyzed FBS, 15.4 µM	87.3	77.6	–
HPLM + 10% dialyzed FBS, 46.1 µM	8.36	34	–
RPMI 5 mM glucose + 10% FBS, 0.000781 µM	88.7	97.9	98.5
RPMI 5 mM glucose + 10% FBS, 0.00234 µM	116	102	107
RPMI 5 mM glucose + 10% FBS, 0.00702 µM	101	120	122
RPMI 5 mM glucose + 10% FBS, 0.0211 µM	113	115	108
RPMI 5 mM glucose + 10% FBS, 0.0632 µM	107	111	126
RPMI 5 mM glucose + 10% FBS, 0.19 µM	106	109	116
RPMI 5 mM glucose + 10% FBS, 0.569 µM	106	95.6	103
RPMI 5 mM glucose + 10% FBS, 1.71 µM	89.5	108	107
RPMI 5 mM glucose + 10% FBS, 5.12 µM	102	102	87
RPMI 5 mM glucose + 10% FBS, 15.4 µM	86	65.6	37.9
RPMI 5 mM glucose + 10% FBS, 46.1 µM	11.3	34	13.1
RPMI 5 mM glucose + 10% dialyzed FBS, 0.000781 µM	48.6	115	91.3
RPMI 5 mM glucose + 10% dialyzed FBS, 0.00234 µM	105	103	107
RPMI 5 mM glucose + 10% dialyzed FBS, 0.00702 µM	129	109	105
RPMI 5 mM glucose + 10% dialyzed FBS, 0.0211 µM	113	113	115
RPMI 5 mM glucose + 10% dialyzed FBS, 0.0632 µM	120	109	120
RPMI 5 mM glucose + 10% dialyzed FBS, 0.19 µM	110	109	101
RPMI 5 mM glucose + 10% dialyzed FBS, 0.569 µM	99.7	99.5	91.5
RPMI 5 mM glucose + 10% dialyzed FBS, 1.71 µM	90.8	98.2	88.5
RPMI 5 mM glucose + 10% dialyzed FBS, 5.12 µM	114	97.6	65.1
RPMI 5 mM glucose + 10% dialyzed FBS, 15.4 µM	85.6	70.8	37.2
RPMI 5 mM glucose + 10% dialyzed FBS, 46.1 µM	10.8	25.3	21.6
